Converted amounts (≈) assume the structure as drawn. Read-outs that look alike come from different tables or passages of the source.
Experiments:
[1] = system: Clostridium difficile (CD) strains; experiment: microbe, parasite or virus in culture; assay type: cell-based
Bifidobacterium strains = experiment: MIC by microdilution in BHI broth against Bifidobacterium strains; assay type: cell-based, Bifidobacterium spp.
CD = experiment: Animal model testing of CDI (Syrian Golden Hamster model), survival; assay type: in vivo
[2] = cited from earlier work
[3] = cited from earlier work; remark: listed apart in the source
[4] = in vivo; cited from earlier work
[5] = CFM formulations suitable for in vivo dosing (Table 18)
CD strain VPI 1063 = experiment: MIC of CFM formulations following incubation with feces (supernatants); assay type: cell-based, Clostridium difficile; details: for MIC: Clostridioides difficile
[6] = Clostridioides difficile, BAA1805, CD strain BAA1805 (hyper-virulent strain BI/NAP1/027), BB
[7] = Clostridioides difficile, BAA1805, CD strain BAA1805 (hyper-virulent strain BI/NAP1/027), BHI
[8] = Bifidobacterium adolescentis HM-633, BHI broth, read-out: MIC
[9] = Bifidobacterium breve HM-411, BHI broth, read-out: MIC
[10] = Bifidobacterium breve HM-412, BHI broth, read-out: MIC
[11] = Bifidobacterium breve HM-856, BHI broth, read-out: MIC
[12] = Bifidobacterium breve HM-1120, BHI broth, read-out: MIC
[13] = Bifidobacterium longum HM-845, BHI broth, read-out: MIC
[14] = Bifidobacterium longum HM-846, BHI broth, read-out: MIC
[15] = Bifidobacterium longum HM-847, BHI broth, read-out: MIC
[16] = Bifidobacterium, Bifidobacterium sp. HM-30, BHI broth, read-out: MIC
[17] = Bifidobacterium, Bifidobacterium sp. HM-868, BHI broth, read-out: MIC
[18] = CD strain BAA1805 (hyper-virulent strain BI/NAP1/027), BB
[19] = Bifidobacterium adolescentis HM-633, BHI broth
[20] = Bifidobacterium breve HM-411, BHI broth
[21] = Bifidobacterium breve HM-412, BHI broth
[22] = Bifidobacterium breve HM-856, BHI broth
[23] = Bifidobacterium breve HM-1120, BHI broth
[24] = Bifidobacterium longum HM-845, BHI broth
[25] = Bifidobacterium longum HM-846, BHI broth
[26] = Bifidobacterium longum HM-847, BHI broth
[27] = Bifidobacterium sp. HM-30, BHI broth
[28] = Bifidobacterium sp. HM-868, BHI broth

CC(C)N=c1cc2n(-c3ccc(Cl)cc3)c3ccccc3nc-2cc1Nc1ccc(Cl)cc1 [CFM, 3-(p-chloroanilino)-10-(p-chlorophenyl)-2,10-dihydro-2-iso-propyliminophenazine]
MIC50 ([1]; Clostridioides difficile): 0.062 µg/mL (≈ 0.131 µM)
MIC90 ([1]; Clostridioides difficile): 0.25 µg/mL (≈ 0.528 µM)
MIC ([1]; Clostridioides difficile, BAA1805, CD isolate BAA1805 (hyper-virulent strain BI/NAP1/027), Table 6): 0.125 µg/mL (≈ 0.264 µM)
MIC [1, 6]: 0.125 µg/mL (≈ 0.264 µM)
MIC [1, 7]: 0.125 µg/mL (≈ 0.264 µM)
MIC50 ([1]; n = 37): 0.062 µg/mL (≈ 0.131 µM)
MIC90 ([1]; n = 37): 0.25 µg/mL (≈ 0.528 µM)
MIC Range ([1]; n = 37): ≦0.031-0.25 μg/ml
MIC (Bifidobacterium strains; [8]): 1 µg/mL (≈ 2.11 µM)
MIC (Bifidobacterium strains; [9]): 2 µg/mL (≈ 4.22 µM)
MIC (Bifidobacterium strains; [10]): 2 µg/mL (≈ 4.22 µM)
MIC (Bifidobacterium strains; [11]): 4 µg/mL (≈ 8.45 µM)
MIC (Bifidobacterium strains; [12]): > 32 µg/mL
MIC (Bifidobacterium strains; [13]): 1 µg/mL (≈ 2.11 µM)
MIC (Bifidobacterium strains; [14]): 2 µg/mL (≈ 4.22 µM)
MIC (Bifidobacterium strains; [15]): 1 µg/mL (≈ 2.11 µM)
MIC (Bifidobacterium strains; [16]): 0.5 µg/mL (≈ 1.06 µM)
MIC (Bifidobacterium strains; [17]): 2 µg/mL (≈ 4.22 µM)
protection at higher dosages (CD; 20 and 40 mg/kg versus 10 mg/kg): did not increase the protection
protection during 28 days of observation (CD; CFM dosage of 10 mg/kg): 30%
survival for 27 days (CD; CFM in aqueous suspension of CMC at 10 mg/kg/once a day): 30%
protection on animal survival by day 9 after infection (CD; CFM in aqueous suspension of CMC, oral, 10 mg/kg/day, 5 days): 50%
survival by day 7 (CD; drug alone at the same dosage as in the combination (Lamprene 10 mg/kg twice a day)): 0%
solubility in water [2]: 0.225 µg/mL (≈ 0.475 µM)
half-life ([3]; after a single dose of 100 mg): about 10 days
half-life ([3]; following long-term high dosage of 300 mg): about 70 days
orally absorbed bioavailability ([3]; in vivo, po): 45-65%
gastrointestinal conditions including abdominal and epigastric pain, nausea, vomiting and/or diarrhea [4]: 40-50 % of patients
icothyosis and dryness of skin [4]: 8-28 % of patients
ocular conditions including conjunctival pigmentation, itching and dryness [4]: approximately 1 % of patients
rash and pruritus [4]: 1-5 % of patients
skin pigmentation [4]: 75-100 % of patients
solubility ([5]; Cremophor-EL (100%, liquid), organic solvent or mixture, in Cremophor-EL, liquid, 100%): 8000 µg/mL (≈ 16900 µM)
solubility ([5]; Cremophor-EL (100%, liquid), organic solvent or mixture, in Cremophor-EL, liquid, 100%, if kept for long time (3-5 days)): 10000 µg/mL (≈ 21100 µM)
solubility ([5]; Phosal 50 PG (phospholipids), oil or lipid, in Phosal 50 PG (phospholipids), thick oily liquid): 10000 µg/mL (≈ 21100 µM)
solubility ([5]; Phosal 53 MCT (phospholipids), oil or lipid, in Phosal 53 MCT (phospholipids), thick oily liquid): 10000 µg/mL (≈ 21100 µM)
solubility ([5]; Tween 80 (100%, liquid), organic solvent or mixture, in Tween 80, liquid, 100%): 12000 µg/mL (≈ 25300 µM)
solubility ([5]; Tween 80 (100%, liquid), organic solvent or mixture, in Tween 80, liquid, 100%, if kept for long time (3-5 days)): 15000 µg/mL (≈ 31700 µM)
Stability ([5]; in Cremophor-EL, liquid, 100%, remains stable following dilution in water/medium/saline/PBS): Stable, and remains
Stability ([5]; in Olive oil, canola oil, and coconut oil, diluted only in oils, forms emulsions in water): Stable, should be
Stability ([5]; in Phosal 50 PG (phospholipids), forms emulsion in water): Stable, clear, thick
Stability ([5]; in Phosal 53 MCT (phospholipids), forms emulsion in water): Stable, clear, thick
Stability ([5]; in Tween 80, liquid, 100%, stable after dilution in water or culture medium, PBS, precipitates slowly in saline): Stable undiluted,
solubility ([5]; olive oil, canola oil, and coconut oil (100%, liquid), oil or lipid, in Olive oil, canola oil, and coconut oil, liquid, 100%): 5000 µg/mL (≈ 10600 µM)
solubility ([5]; polyethylene glycol (PEG-300, PEG-400), 100%, liquid, organic solvent or mixture, in Polyethylene glycol (PEG-300, PEG-400)): 5000 µg/mL (≈ 10600 µM)

CCN=c1cc2n(-c3ccc(Cl)cc3)c3ccccc3nc-2cc1Nc1ccc(Cl)cc1 [B746]
antibacterial activity against CD, fold greater than MET [1]: 16 fold
antibacterial activity against CD, fold greater than VAN [1]: 8 fold
MIC [1, 18]: 0.25 µg/mL (≈ 0.544 µM)
MIC50 ([1]; n = 37): 0.125 µg/mL (≈ 0.272 µM)
MIC90 ([1]; n = 37): 0.25 µg/mL (≈ 0.544 µM)
MIC Range ([1]; n = 37): ≦0.031-0.5 μg/ml
MIC (Bifidobacterium strains; [19]): 2 µg/mL (≈ 4.35 µM)
MIC (Bifidobacterium strains; [20]): 4 µg/mL (≈ 8.71 µM)
MIC (Bifidobacterium strains; [21]): 4 µg/mL (≈ 8.71 µM)
MIC (Bifidobacterium strains; [22]): 32 µg/mL (≈ 69.7 µM)
MIC (Bifidobacterium strains; [23]): >32 µg/mL
MIC (Bifidobacterium strains; [24]): 2 µg/mL (≈ 4.35 µM)
MIC (Bifidobacterium strains; [25]): 2 µg/mL (≈ 4.35 µM)
MIC (Bifidobacterium strains; [26]): 2 µg/mL (≈ 4.35 µM)
MIC (Bifidobacterium strains; [27]): 1 µg/mL (≈ 2.18 µM)
MIC (Bifidobacterium strains; [28]): 2 µg/mL (≈ 4.35 µM)

CN[C@H](CC(C)C)C(=O)N[C@H]1C(=O)N[C@@H](CC(N)=O)C(=O)N[C@H]2C(=O)N[C@H]3C(=O)N[C@H](C(=O)N[C@H](C(=O)O)c4cc(O)cc(O)c4-c4cc3ccc4O)[C@H](O)c3ccc(c(Cl)c3)Oc3cc2cc(c3O[C@@H]2O[C@H](CO)[C@@H](O)[C@H](O)[C@H]2O[C@H]2C[C@](C)(N)[C@H](O)[C@H](C)O2)Oc2ccc(cc2Cl)[C@H]1O [VAN, vancomycin]
MIC Range [1]: 0.25 to 2.0 µg/mL
MIC50 ([1]; Clostridioides difficile): 0.5 µg/mL (≈ 0.345 µM)
MIC90 ([1]; Clostridioides difficile): 2 µg/mL (≈ 1.38 µM)
MIC ([1]; Clostridioides difficile, BAA1805): 1 µg/mL (≈ 0.69 µM)
MIC (Bifidobacterium strains; Bifidobacterium): 0.25 µg/mL (≈ 0.173 µM)
survival by day 14 (CD; drug alone at the same dosage as in the combination (VAN 5 mg/kg twice a day)): 0%
MIC (CD strain VPI 1063; VPI1063, 2 h, read-out: MIC in Centrifuged BHI control): 0.5 µg/mL
MIC (CD strain VPI 1063; VPI1063, 2 h, read-out: MIC in Fecal extracts): 1 µg/mL
MIC (CD strain VPI 1063; VPI1063, read-out: MIC in BHI control): 0.5 µg/mL
increase in MIC after incubation in feces (CD strain VPI 1063; Table 21): 2 fold

Cc1ncc([N+](=O)[O-])n1CCO [MET, metronidazole]
MIC [1, 6]: 8 µg/mL (≈ 46.7 µM)
MIC [1, 7]: 1 µg/mL (≈ 5.84 µM)
MIC50 ([1]; Clostridioides difficile, n = 37, read-out: MIC50): 1 µg/mL (≈ 5.84 µM)
MIC90 ([1]; Clostridioides difficile, n = 37, read-out: MIC90): 4 µg/mL (≈ 23.4 µM)
MIC (Bifidobacterium strains; [8]): > 32 µg/mL
MIC (Bifidobacterium strains; [9]): > 32 µg/mL
MIC (Bifidobacterium strains; [10]): > 32 µg/mL
MIC (Bifidobacterium strains; [11]): > 32 µg/mL
MIC (Bifidobacterium strains; [12]): 0.5 µg/mL (≈ 2.92 µM)
MIC (Bifidobacterium strains; [13]): 2 µg/mL (≈ 11.7 µM)
MIC (Bifidobacterium strains; [14]): 2 µg/mL (≈ 11.7 µM)
MIC (Bifidobacterium strains; [15]): 1 µg/mL (≈ 5.84 µM)
MIC (Bifidobacterium strains; [16]): > 32 µg/mL
MIC (Bifidobacterium strains; [17]): 16 µg/mL (≈ 93.5 µM)
MIC in Fecal extracts (CD strain VPI 1063; 128 μg/ml in 20% feces, 2 hours at 37° C., centrifuged, supernatants filter sterilized and tested, CD strain VPI 1063): >32 µg/mL
MIC (CD strain VPI 1063; VPI1063, 128 μg/ml in 20% feces, 2 hours at 37° C., centrifuged, supernatants filter sterilized and tested, CD strain VPI 1063, read-out: MIC in Fecal extracts): > 32 µg/mL
MIC (CD strain VPI 1063; VPI1063, serial dilutions in BHI, without centrifugation, CD strain VPI 1063, read-out: MIC in BHI control): 0.062 µg/mL

CCN=c1cc2n(-c3cccc(C(F)(F)F)c3)c3ccccc3nc-2cc1Nc1cccc(C(F)(F)F)c1 [B4129]
antibacterial activity against CD, fold greater than MET [1]: 32 fold
antibacterial activity against CD, fold greater than VAN [1]: 16 fold
MIC [1, 18]: 0.062 µg/mL (≈ 0.118 µM)
MIC50 ([1]; n = 37): ≦0.031 μg/ml
MIC90 ([1]; n = 37): 0.125 µg/mL (≈ 0.237 µM)
MIC Range ([1]; n = 37): ≦0.031-0.25 μg/ml
MIC (Bifidobacterium strains; [19]): >32 µg/mL
MIC (Bifidobacterium strains; [20]): >32 µg/mL
MIC (Bifidobacterium strains; [21]): 0.25 µg/mL (≈ 0.475 µM)
MIC (Bifidobacterium strains; [22]): >32 µg/mL
MIC (Bifidobacterium strains; [23]): >32 µg/mL
MIC (Bifidobacterium strains; [24]): ≦0.031 μg/ml
MIC (Bifidobacterium strains; [25]): 0.25 µg/mL (≈ 0.475 µM)
MIC (Bifidobacterium strains; [26]): 2 µg/mL (≈ 3.8 µM)
MIC (Bifidobacterium strains; [27]): 4 µg/mL (≈ 7.6 µM)
MIC (Bifidobacterium strains; [28]): >32 µg/mL

Reference: US9849130B2 (KamTek, Inc., priority 2014, dated 2017)
